In PMC10534672, “A Nucleus-Targeting WT1 Antagonistic Peptide Encapsulated in Polymeric Nanomicelles Combats Refractory Chronic Myeloid Leukemia” (Pharmaceutics, 2023):
Ends that are not written are not given here.

Columns and labels:
[1] = system: WT1+ BP-CML xenograft (K562) mice; settings: single subcutaneous injection, 30 mg/kg WIP2W (FITC-labelled), 4 h, IVIS of heart, liver, spleen, lung, kidney
Method: In this study, a WT1^+ BP-CML xenograft mouse model was developed. K562 cells (1 × 10^7/animal) were injected subcutaneously into the flanks of 5-week-old female BALB/c nude mice to generate primary BP-CML tumors. Once the tumors became noticeable, the mice were euthanized, and tumor cells were harvested. These cells were then reintroduced subcutaneously into a new set of hosts (1 × 10^7/animal) for further therapeutic investigations. […] Four hours post-administration, the mice were euthanized. Their tumors and primary organs were then extracted and assessed for fluorescence using IVIS (in vivo imaging system) equipment from PerkinElmer, USA.

[2] = system: WT1+ BP-CML xenograft (K562) mice; assay: In vivo antitumor efficiency; set-up: species or system BALB/c nude mice; settings: tumors excised after 14 days daily s.c. treatment, WIP2W 30 mg/kg
Method: These tumor-bearing mice were then randomly assigned to one of four groups (n = 5 per group). […] The subcutaneous tumor volume (mm^3) and body weight (g) were recorded three times per week, and the tumor volume can be computed according to the following equation:Tumor volume (mm^3) = L × W × W/2(2) where “L” and “W” denote the maximum and minimum dimensions, respectively. On day 19, the mice were slaughtered, and the retrieved major organs and tumors were stained with hematoxylin and eosin (H&E), WT1, and Ki67, respectively.

[3] = Biological safety in vivo (body weight, H&E of major organs)
K562 cells [4] = assay: Cell cycle analysis (PI, flow cytometry); assay type: cell-based, human; settings: K562, 10 μM, 24 h
Method: K562 cells were incubated in the absence and presence of WIP2W (10 μM) for 24 h. Subsequently, these cells were collected and fixed with 75% cold ethanol overnight, followed by treatment with propidium iodide (PI) and RNase A. Then, the cell fluorescence was examined using flow cytometry, and the cell cycle profiles were analyzed using FlowJo 10.

K562 cells [5] = assay: Cellular uptake by flow cytometry; assay type: cell-based, human; settings: FITC-WIP2W 0.05, 0.5 and 5 μM, K562, 37 °C, 2 h, n = 3
Method: The percentage of positive cells and their mean fluorescence intensity were then analyzed using a flow cytometer, with each condition tested in triplicate (n = 3).

[6] = system: WT1+ BP-CML xenograft (K562) mice; assay: Splenic infiltration (Ki67 staining of spleen); assay type: in vivo, BALB/c nude mice; settings: after 14 days daily treatment, n = 3
[7] = Encapsulation efficiency of PEG-PE micelles by ultrafiltration; assay type: physicochemical; settings: n = 3
Method: The ability of PEG-PE micelles to encapsulate WIP2W was assessed using an ultrafiltration method. Solutions of FITC-WIP2W-loaded micelles (with PEG-PE concentrations of 5, 10, 30, 50, 100, and 200 μM, and FITC-WIP2W at 10 μM) were placed into an ultra-centrifugal filter (MWCO 100,000, Millipore, Burlington, MA, USA). They were then centrifuged at 12,000× g for 30 min. The fluorescence intensity of the filtrate was subsequently measured spectrophotometrically. A concentration-to-fluorescence intensity relationship was then derived to determine the amount of unencapsulated FITC-WIP2W in the filtrate. From this, the encapsulation efficiency (EE%) of PEG-PE micelles for WIP2W can be calculated, as shown below. EE% = incorporated WIP2W/initial WIP2W added × 100%(1)

L02 cells = assay: Cytotoxicity assay (CCK-8); settings: L02, up to 40 μM, 24 h
Method: (§1) K562 (1.5 × 10^4/well) and L02 (8 × 10^3/well) cells were seeded in 96-well plates and incubated with gradient concentrations of peptides or micelles in complete mediums. After 24 or 48 h of incubation, each well was spiked with CCK-8 agent (10 μL) for another 2 h. Absorption was detected by a spectrophotometer at 450 nm (Molecular Devices, San Jose, CA, USA), and IC50 values were calculated by curve fitting.

K562 cells [8] = system: K562 cells
Method: as §1

K562 cells [9] = assay: Intracellular localization by confocal laser scanning microscopy; assay type: cell-based, human; settings: FITC-WIP2W 10 μM, K562, 37 °C, 3.5 h, Hoechst33342
Method: The precise localization of WIP2W was identified using the same microscope. K562 cells, after being exposed to FITC-WIP2W (10 μM) at 37 °C for 3.5 h, were gathered and stained with Hoechst33342. They were then moved to confocal dishes, where fluorescence data were captured.

WT1 protein [10] = biological target: T1, WT1 protein (Homo sapiens, UniProt P19544); assay: WT1 immunohistochemistry of excised tumors; assay type: in vivo, BALB/c nude mice; set-up: The excised tumors underwent immunohistochemical analysis using an anti-WT1 antibody; from tissue; host or cells: excised K562 xenograft tumours from BALB/c nude mice; settings: anti-WT1 IHC, after 14 days daily s.c. treatment, WIP2W 30 mg/kg
T1 sequence (P19544 whole entry): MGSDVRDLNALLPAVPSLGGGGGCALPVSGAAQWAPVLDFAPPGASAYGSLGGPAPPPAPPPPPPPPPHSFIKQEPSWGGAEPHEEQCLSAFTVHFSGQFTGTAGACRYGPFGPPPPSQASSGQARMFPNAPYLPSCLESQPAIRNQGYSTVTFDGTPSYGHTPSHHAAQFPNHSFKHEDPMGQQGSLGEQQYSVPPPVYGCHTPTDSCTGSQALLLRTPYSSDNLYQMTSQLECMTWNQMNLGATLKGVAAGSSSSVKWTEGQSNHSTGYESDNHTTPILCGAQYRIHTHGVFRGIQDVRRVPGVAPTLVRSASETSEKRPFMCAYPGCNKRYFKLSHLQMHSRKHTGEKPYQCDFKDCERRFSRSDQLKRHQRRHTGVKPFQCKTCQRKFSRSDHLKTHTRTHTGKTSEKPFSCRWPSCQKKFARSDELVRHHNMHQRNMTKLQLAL
From the text: […]. […] […].

WT1 protein [11] = biological target: T1, WT1 protein; assay: Pull-down assay with biotin-WIP2W on streptavidin magnetic beads, anti-WT1 immunoblot; assay type: binding; set-up: incubated with protein lysates, including the nuclear and cytoplasmic proteins from K562 cells; endogenous in cells; host or cells: K562 cells; settings: nuclear and cytoplasmic protein lysates of K562 cells, 2 h at 25 °C, anti-WT1 Western blot
Method: Proteins from different localizations were harnessed for peptide–protein interaction studies. […] The bound WIP2W beads were magnetically separated, discarding the unattached WIP2W molecules in the leftover solution. The combined protein extracts from the whole cell, nucleus, and cytoplasm were then exposed to the WIP2W beads for another 2 h at 25 °C. Finally, the bead eluates were probed using an anti-WT1 antibody.

myeloid leukemia = settings: cited from earlier work
From the text: In CML, the influence of WT1 stems from its robust transcriptional control of genes associated with cell growth, metabolism, differentiation, and apoptosis. Interventions targeting WT1 can induce cell cycle arrest and apoptosis. […] Similarly, WT1-specific RNA interference led to an increase in G0/G1-phase cells and a decrease in S-phase cells. In this study, the WIP2W peptide halted the cell cycle in ...

Row | Compound | Distribution in major organs [1] | H&E staining of tumor tissues [2] | Body weight ([3]; 14 days daily treatment, compared to control and imatinib groups) | H&E staining of major organs (systemic toxicity) ([3]; after 14 days daily treatment, imatinib 50 mg/kg i.p., WIP2W 30 mg/kg s.c.) | G2/M phase compartment of cell cycle distribution (K562 cells [4]; n = 3 (control 22.4%)) | G0/G1 phase compartment of cell cycle distribution (K562 cells [4]; n = 3 (control 24.1%)) | Cellular uptake (K562 cells [5]) | Ki67 staining of spleen (splenic infiltration of CML cells) [6] | Encapsulation efficiency (EE%) ([7]; molar ratio PEG-PE:WIP2W 3:1, FITC-WIP2W 10 μM in PBS, ultrafiltration MWCO 100,000, fluorescence) | Encapsulation efficiency (EE%) ([7]; molar ratio PEG-PE:WIP2W surpassed 10, FITC-WIP2W 10 μM in PBS, ultrafiltration, fluorescence) | Cytotoxicity in normal hepatic cell line L02 (L02 cells) | Cell viability (K562 cells [8]; K562, 20 μM, 24 h, CCK-8, PBS control = 100%) | IC50 (K562 cells [8]; read-out: IC50 (concentration that inhibited 50% K562 cell proliferation), K562, 24 h, CCK-8, n = 6) | Intracellular localization (K562 cells [9]) | WT1 protein levels in tumor tissues relative to controls (WT1 protein [10]) | Binding of WIP2W to WT1 protein (pull-down) (WT1 protein [11]) | Effect on cell cycle progression (myeloid leukemia)
1 | WWGGDQRRSWGRRRPDRRYGRKKRRQRRR [WIP2W] | predominantly distributed in the liver and kidneys | pronounced cell death | no significant weight loss | minimal systemic toxicity | 14.1% | 32.4% | concentration dependency | negligible signs of metastatic CML cells in the spleen | approximately 72% | exceeded 95% | no apparent cytotoxicity | < 10% | 9.7 µM | majority of the green fluorescence was pinpointed in K562 cells’ nuclei | significantly diminished | specifically bind to the WT1 protein in both the nucleus and cytoplasm | 
2 | COc1cc(/C=C/C(=O)CC(=O)/C=C/c2ccc(O)c(OC)c2)ccc1O [curcumin] |  |  |  |  |  |  |  |  |  |  |  |  |  |  |  |  | induce cell death and G2/M phase arrest
3 | Cc1ccc(NC(=O)c2ccc(CN3CCN(C)CC3)cc2)cc1Nc1nccc(-c2cccnc2)n1 [imatinib, reference compound] |  |  |  |  |  |  |  | pronounced fluorescence in the spleen |  |  |  |  |  |  |  |  | 
